Reference: PubChem BioAssay (NCI)
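Growth conditions: 96-well plates. Treatment: test compound, 48 hours, 5 concentrations. Analysis: linear interpolation between bracketing concentrations; unreached endpoints set to highest concentration. TGI denotes the concentration required for complete inhibition of growth.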

Experiments:
Experiment in all cases: NCI-60 cell line screen, 48 h
[1] = test system: EKVX NSCLC
[2] = test system: UACC-62 melanoma
[3] = test system: KM12 colon
[4] = test system: A549 NSCLC
[5] = test system: SNB-75 CNS
[6] = test system: NCI-H522 lung
[7] = test system: U251 CNS
[8] = test system: MCF7 breast
[9] = test system: ACHN renal
[10] = test system: CCRF-CEM leukemia
[11] = test system: NCI/ADR-RES ovarian
[12] = test system: PC-3 prostate
[13] = test system: T-47D breast
[14] = test system: MDA-N
[15] = test system: M14 melanoma
[16] = test system: NCI-H460 lung
[17] = test system: HCT-15 colon
[18] = test system: SR leukemia

| SMILES | TGI [1] [µM] | TGI [2] [µM] | TGI [3] [µM] | TGI [4] [µM] | TGI [5] [µM] | TGI [6] [µM] | TGI [7] [µM] | TGI [8] [µM] | TGI [9] [µM] | TGI [10] [µM] | TGI [11] [µM] | TGI [12] [µM] | TGI [13] [µM] | TGI [14] [µM] | TGI [15] [µM] | TGI [16] [µM] | TGI [17] [µM] | TGI [18] [µM] |
| --- | --- | --- | --- | --- | --- | --- | --- | --- | --- | --- | --- | --- | --- | --- | --- | --- | --- | --- |
| C1CCC2(CC1)O[C@@H]1[C@@H](O2)[C@@H](O[C@H]2O[C@@H]3COC4(CCCCC4)O[C@H]3[C@@H]3OC4(CCCCC4)O[C@@H]23)O[C@@H]2COC3(CCCCC3)O[C@@H]12 | > 100 | > 100 | > 100 | > 100 | > 100 | > 100 | > 100 | > 100 | > 100 | > 100 | > 100 | > 100 | > 100 | > 100 | > 100 | – | – | – |
| Nc1ncnc2c1nnn2C1C=CC(COS(N)(=O)=O)C1 (configuration not stated) | > 100 | 35.4 | 86.3 | > 100 | 39.3 | – | 57.7 | > 100 | 49.1 | > 100 | > 100 | 26.9 | 97.7 | 19 | 25 | > 100 | > 100 | > 100 |
| Cc1nc(C)c(C(=O)NNC(N)=S)cc1C(=O)NNC(N)=S | > 100 | > 100 | > 100 | > 100 | – | > 100 | > 100 | > 100 | > 100 | – | > 100 | > 100 | > 100 | > 100 | > 100 | > 100 | > 100 | – |
| O=C(/C=C/c1ccc(O)c(O)c1)OCCCc1ccccc1 | 63.8 | 23.6 | – | 31.3 | – | 5.59 | 23.4 | 26.8 | 21.2 | – | 28.6 | 24.4 | 45.9 | 31.3 | 22.6 | 55.6 | 26.4 | 22.8 |
| O=C1CC2(c3ccccc3)ON=C(c3ccccc3)N2c2ccccc2N1 (configuration not stated) | > 100 | > 100 | > 100 | – | > 100 | > 100 | > 100 | > 100 | > 100 | > 100 | > 100 | > 100 | > 100 | > 100 | > 100 | > 100 | > 100 | > 100 |
| COC(=O)[C@]1(c2cc3ccccc3n2S(=O)(=O)c2ccccc2)CC2CN(C(C)=O)C1CC2=O (some centres not stated) | 6.17 | 3.27 | 8.22 | 13.1 | 12.3 | 4.62 | 3.08 | 3.37 | 3.97 | – | > 40.4 | 3.83 | 7.05 | 9.32 | 4.63 | 10.9 | 9.06 | 5.12 |
| O=C(c1ccco1)N1CCCN(C(=O)c2ccco2)C1=S | > 100 | > 100 | > 100 | – | – | – | > 100 | > 100 | > 100 | > 100 | > 100 | > 100 | 93.3 | > 100 | > 100 | > 100 | > 100 | – |
| N/C(=N\S(=O)(=O)c1ccc(S(=O)(=O)c2ccccc2)s1)Nc1ccc(Cl)cc1 | 40.4 | 24.4 | > 100 | > 100 | > 100 | 28.9 | 27.8 | 35.6 | 71.4 | – | 45.1 | 29.6 | > 100 | 39.1 | 37.3 | 33.8 | 35.1 | 61.9 |
| CC[C@]12C=CCN3CC[C@@]4(c5cc(Br)c(OC)cc5N(C)[C@H]4[C@@](O)(C(=O)NN)[C@@H]1O)[C@@H]32 | > 100 | > 100 | > 100 | > 100 | 43.6 | > 100 | > 100 | > 100 | > 100 | > 100 | > 100 | > 100 | > 100 | > 100 | > 100 | > 100 | > 100 | – |
| COC(=O)/C(=C\Nc1cccc(C)n1)S(=O)(=O)c1ccc(C)cc1 | – | 91.5 | 90.3 | > 100 | > 100 | > 100 | > 100 | > 100 | > 100 | > 100 | > 100 | > 100 | > 100 | > 100 | > 100 | > 100 | > 100 | > 100 |
| CCCCC(=O)NS(=NC(=O)c1ccccc1)C(Cl)(Cl)Cl (configuration not stated) | > 100 | > 100 | > 100 | > 100 | > 100 | – | > 100 | > 100 | > 100 | > 100 | > 100 | > 100 | > 100 | > 100 | > 100 | > 100 | > 100 | > 100 |
| Oc1ccc(-c2nc(-c3cccnc3)c(-c3ccc(Cl)cc3)[nH]2)cc1O | 50.2 | 23.3 | 21.2 | 54.1 | 20.2 | 4.68 | 26.4 | 24.2 | 26.1 | > 100 | 32.5 | 21.2 | 37.9 | 25.1 | 26.4 | – | 22.2 | > 100 |
| COC(=O)c1c(O)ccc2c1c1c(n2Cc2ccccc2Cl)C(=O)c2ccccc2C1=O | 32.5 | 30.2 | 24.1 | 26.7 | – | 25.5 | 30.2 | 32.4 | 36.7 | 43.6 | 39.3 | 26.3 | 27.4 | 31.1 | 34 | 23.5 | 31.8 | 47.8 |
